Source: PubChem BioAssay AID330 (DTP/NCI, 2004)
“And” between values parts separate entries of the source, which are not always exact repeats. Equal values may be shown once. Inconclusive results and toxic doses are left out. The calls were made as follows: active = survival T/C of 150% or more; inactive = T/C below 125% in these data. Peptide text beside a SMILES is read from it. * marks the point of attachment. βNA = c1ccc2cc(N*)ccc2c1

Tested on: P388 leukemia ip, CD2F1 mice, survival T/C
Assay: NCI In Vivo Anticancer Drug Screen. Data for tumor model P388 Leukemia (intraperitoneal) in CD2F1 (CDF1) mice
Settings: endpoint: median survival time, higher = longer survival
How it was run: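 Mice carrying the transplanted tumor received test compound or vehicle. Survival was recorded in each group, and the value is the treated-group measurement divided by that of the vehicle-treated control group.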

[1] = dose: 50.0 mg/kg/injection, schedule: Q01DX009 (ip), vehicle: saline
[2] = dose: 100.0 mg/kg/injection, schedule: Q01DX009 (ip), vehicle: saline
[3] = dose: 200.0 mg/kg/injection, schedule: Q01DX009 (ip), vehicle: saline
[4] = dose: 100.0 mg/kg/injection, schedule: Q01DX009 (ip), vehicle: saline with Tween-80
[5] = dose: 200.0 mg/kg/injection, schedule: Q01DX009 (ip), vehicle: saline with Tween-80
[6] = dose: 12.5 mg/kg/injection, schedule: Q01DX009 (ip), vehicle: distilled water + Tween-80
[7] = dose: 25.0 mg/kg/injection, schedule: Q01DX009 (ip), vehicle: distilled water + Tween-80
[8] = dose: 50.0 mg/kg/injection, schedule: Q01DX009 (ip), vehicle: distilled water + Tween-80
[9] = dose: 100.0 mg/kg/injection, schedule: Q01DX009 (ip), vehicle: distilled water + Tween-80
[10] = dose: 60.0 mg/kg/injection, schedule: Q01DX005 (ip), vehicle: saline with Tween-80
[11] = dose: 120.0 mg/kg/injection, schedule: Q01DX005 (ip), vehicle: saline with Tween-80
[12] = dose: 240.0 mg/kg/injection, schedule: Q01DX005 (ip), vehicle: saline with Tween-80
[13] = dose: 50.0 mg/kg/injection, schedule: Q01DX005 (ip), vehicle: Klucel (hydroxypropylcellulose) (HPC)
[14] = dose: 100.0 mg/kg/injection, schedule: Q01DX005 (ip), vehicle: Klucel (hydroxypropylcellulose) (HPC)
[15] = dose: 200.0 mg/kg/injection, schedule: Q01DX005 (ip), vehicle: Klucel (hydroxypropylcellulose) (HPC)
[16] = dose: 50.0 mg/kg/injection, schedule: Q01DX005 (ip), vehicle: saline

Measured: T/C

COc1cccc(N=Nc2c(-c3ccccc3)nn(C(N)=S)c2C)c1
inactive: dose: 50.0 mg/kg/injection, schedule: Q01DX005 (ip), vehicle: saline with Tween-80 100 % of control | dose: 100.0 mg/kg/injection, schedule: Q01DX005 (ip), vehicle: saline with Tween-80 89 % of control | dose: 200.0 mg/kg/injection, schedule: Q01DX005 (ip), vehicle: saline with Tween-80 91 % of control

O=c1c2ccccc2c2sc3c4ccccc4c(=O)c3c12
inactive: dose: 60.0 mg/kg/injection, schedule: Q01DX005 (ip), vehicle: Klucel (hydroxypropylcellulose) (HPC) 104 % of control | dose: 120.0 mg/kg/injection, schedule: Q01DX005 (ip), vehicle: Klucel (hydroxypropylcellulose) (HPC) 99 % of control | dose: 240.0 mg/kg/injection, schedule: Q01DX005 (ip), vehicle: Klucel (hydroxypropylcellulose) (HPC) 97 % of control

CCCCCCCCCCCC[N+]1([O-])CCCCCC1
inactive: dose: 12.5 mg/kg/injection, schedule: Q01DX009 (ip), vehicle: saline 100 % of control | dose: 25.0 mg/kg/injection, schedule: Q01DX009 (ip), vehicle: saline 100 % of control | [1] 107 % of control and 94 % of control

CCCCNC(=S)NNC(=O)CNC(c1ccc(OC)cc1)C(CC)c1ccc(OC)cc1 (configuration not stated)
inactive: dose: 100.0 mg/kg/injection, schedule: Q01DX001 (ip), vehicle: saline with Tween-80 88 % of control | dose: 200.0 mg/kg/injection, schedule: Q01DX001 (ip), vehicle: saline with Tween-80 101 % of control

O=C(O)C1Oc2cc3ccccc3cc2O1
inactive: [1] 90 % of control | [2] 90 % of control | [3] 97 % of control

O=c1c2c([nH]c3c1ccc1[nH]c4c(c(=O)c13)CCCC4)CCCC2
inactive: dose: 50.0 mg/kg/injection, schedule: Q01DX009 (ip), vehicle: saline with Tween-80 90 % of control | [4] 91 % of control | [5] 97 % of control

CCO/C(C)=N\P(=O)(Oc1ccccc1)Oc1ccccc1
inactive: [6] 105 % of control | [7] 102 % of control | [8] 110 % of control | [9] 102 % of control

O=C(NC(Cc1ccc(O)cc1)C(=O)N=Nc1c(O)[nH]c2ccccc12)c1ccccc1 (configuration not stated)
inactive: dose: 30.0 mg/kg/injection, schedule: Q01DX005 (ip), vehicle: saline with Tween-80 90 % of control | [10] 87 % of control and 90 % of control | [11] 90 % of control | [12] 101 % of control

CCOC(=O)c1ccc(NC(=O)CSc2nc3ccccc3o2)cc1
inactive: [1] 114 % of control | [2] 93 % of control

O=[N+]([O-])c1ccc(S(=O)(=O)C/C=C/CCl)c([N+](=O)[O-])c1
inactive: dose: 12.5 mg/kg/injection, schedule: Q01DX009 (ip), vehicle: saline with Tween-80 113 % of control | dose: 25.0 mg/kg/injection, schedule: Q01DX009 (ip), vehicle: saline with Tween-80 90 % of control

Clc1ccc(N2C(c3ccccc3)=N[C@@H](N3CCCCC3)[C@@H]2N2CCCCC2)cc1
inactive: [13] 102 % of control | [14] 98 % of control | [15] 93 % of control

O=C1CCC2CCc3ccccc3N12 (configuration not stated)
inactive: dose: 100.0 mg/kg/injection, schedule: Q04DX002 (ip), vehicle: other 102 % of control | dose: 200.0 mg/kg/injection, schedule: Q04DX002 (ip), vehicle: other 96 % of control | dose: 400.0 mg/kg/injection, schedule: Q04DX002 (ip), vehicle: other 103 % of control

O=C(O)C1C2C=CC(C1C(=O)O)N(/C=C/c1ccccc1)C2=O (configuration not stated)
inactive: dose: 100.0 mg/kg/injection, schedule: Q04DX003 (ip), vehicle: Klucel (hydroxypropylcellulose) (HPC) 102 % of control | dose: 200.0 mg/kg/injection, schedule: Q04DX003 (ip), vehicle: Klucel (hydroxypropylcellulose) (HPC) 91 % of control | dose: 400.0 mg/kg/injection, schedule: Q04DX003 (ip), vehicle: Klucel (hydroxypropylcellulose) (HPC) 90 % of control

Nc1c(Cl)c(Cl)cc(Cl)c1Cl
inactive: dose: 100.0 mg/kg/injection, schedule: Q04DX003 (ip), vehicle: saline with Tween-80 100 % of control | dose: 200.0 mg/kg/injection, schedule: Q04DX003 (ip), vehicle: saline with Tween-80 104 % of control | dose: 400.0 mg/kg/injection, schedule: Q04DX003 (ip), vehicle: saline with Tween-80 104 % of control

COc1ccc(-c2c(N)cnc(C)c2C)c(OC)c1OC
inactive: dose: 12.5 mg/kg/injection, schedule: Q01DX009 (ip), vehicle: other 107 % of control | dose: 25.0 mg/kg/injection, schedule: Q01DX009 (ip), vehicle: other 107 % of control | dose: 50.0 mg/kg/injection, schedule: Q01DX009 (ip), vehicle: other 99 % of control | dose: 100.0 mg/kg/injection, schedule: Q01DX009 (ip), vehicle: other 87 % of control

CCS1=C2C(=O)CCCC2=Nc2ccccc21 (configuration not stated)
inactive: dose: 15.0 mg/kg/injection, schedule: Q01DX005 (ip), vehicle: saline 100 % of control | dose: 30.0 mg/kg/injection, schedule: Q01DX005 (ip), vehicle: saline 104 % of control | [16] 99 % of control | dose: 60.0 mg/kg/injection, schedule: Q01DX005 (ip), vehicle: saline 92 % of control

O=C(O)c1cc2ccccc2c2c3c(ccc12)OCO3
inactive: [10] 95 % of control | [11] 100 % of control | [12] 100 % of control

CCOC1(C2(O)CCCCC2)CC(C)=NO1 (configuration not stated)
inactive: dose: 100.0 mg/kg/injection, schedule: Q04DX002 (ip), vehicle: Klucel (hydroxypropylcellulose) (HPC) 104 % of control | dose: 200.0 mg/kg/injection, schedule: Q04DX002 (ip), vehicle: Klucel (hydroxypropylcellulose) (HPC) 98 % of control | dose: 400.0 mg/kg/injection, schedule: Q04DX002 (ip), vehicle: Klucel (hydroxypropylcellulose) (HPC) 102 % of control

CCOC(=O)C(C#N)C(c1ccc2c(c1)OCO2)N(CCO)CCO (configuration not stated)
inactive: [13] 93 % of control | [14] 99 % of control | [15] 99 % of control

Cc1ccc(S(=O)(=O)N=P(c2ccccc2)(c2ccccc2)c2ccccc2)cc1
inactive: [4] 91 % of control | [5] 95 % of control

CC(N)C(=O)NC(Cc1ccccc1)C(=O)N1CCCC1C(=O)Nc1ccc2ccccc2c1 (stereo not drawn) (H-Ala-Phe-Pro-βNA; configuration not given here)
inactive: [16] 106 % of control | dose: 100.0 mg/kg/injection, schedule: Q01DX005 (ip), vehicle: saline 92 % of control

CCCCCCCCCCCCCCCCCCOCC(O)CN(CCO)CCO (configuration not stated)
inactive: dose: 12.5 mg/kg/injection, schedule: Q01DX009 (ip), vehicle: Klucel (hydroxypropylcellulose) (HPC) 91 % of control | dose: 25.0 mg/kg/injection, schedule: Q01DX009 (ip), vehicle: Klucel (hydroxypropylcellulose) (HPC) 91 % of control | dose: 50.0 mg/kg/injection, schedule: Q01DX009 (ip), vehicle: Klucel (hydroxypropylcellulose) (HPC) 96 % of control

CC(=O)Nc1ccc(-c2ccc(NC(C)=O)cc2)cc1
inactive: [1] 105 % of control | [2] 92 % of control | [3] 92 % of control

COc1ccc(-c2c[s+]cs2)cc1
inactive: dose: 6.25 mg/kg/injection, schedule: Q01DX009 (ip), vehicle: distilled water + Tween-80 103 % of control | [6] 112 % of control | [7] 100 % of control | [8] 116 % of control | [9] 109 % of control | dose: 200.0 mg/kg/injection, schedule: Q01DX009 (ip), vehicle: distilled water + Tween-80 93 % of control

CC(C)(C)c1cc(C(O)(C(F)(F)F)C(F)(F)F)c2c(c1)C(C(F)(F)F)(C(F)(F)F)OS2(=O)=O
inactive: dose: 25.0 mg/kg/injection, schedule: Q01DX005 (ip), vehicle: Klucel (hydroxypropylcellulose) (HPC) 93 % of control | [13] 103 % of control | [14] 92 % of control | [15] 91 % of control

COc1ccc(C2c3cc4c(cc3OC(C)(O)C2C)OCO4)c(OC)c1OC (configuration not stated)
inactive: dose: 100.0 mg/kg/injection, schedule: Q04DX002 (ip), vehicle: saline with Tween-80 100 % of control | dose: 200.0 mg/kg/injection, schedule: Q04DX002 (ip), vehicle: saline with Tween-80 96 % of control | dose: 400.0 mg/kg/injection, schedule: Q04DX002 (ip), vehicle: saline with Tween-80 86 % of control

O=[N+]([O-])c1ccc(-c2cn(-c3ccc(Cl)cc3)cn2)cc1
inactive: [10] 96 % of control | [11] 88 % of control | [12] 88 % of control

COC(=O)CCC(N=C(OC)c1ccccc1)C(=O)OC (configuration not stated)
inactive: [13] 98 % of control | [14] 103 % of control | [15] 101 % of control
